From PubChem BioAssay (NCI) come the findings set out here.

Test systems include OVCAR-4 ovarian; SK-MEL-2 melanoma; BT-549 breast; HCT-116 colon; UACC-257 melanoma; HOP-92 NSCLC; T-47D breast; SN12C renal; SF-539 CNS; U251 CNS.
Assay in all cases: growth of human tumour cells (NCI), 48 h

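Step 1: Grow cells in 96-well plates. Step 2: Expose to compound for 48 hours at 5 concentrations. Step 3: Interpolate endpoints linearly; if unreached, use highest concentration. TGI: concentration producing complete growth inhibition.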

For `CC(C)C1CC(CO)(CNc2nc(N)nc(Cl)c2C=O)C1` (stereo not drawn), the TGI was 10.9 µM in the experiment on OVCAR-4 ovarian; 3.31 µM with SK-MEL-2 melanoma; 52.2 µM with BT-549 breast; 7.23 µM in the experiment on HCT-116 colon; 6.06 µM in the experiment with UACC-257 melanoma; 4.83 µM in the experiment with HOP-92 NSCLC. Also, the TGI is more than 100 µM in the experiment with T-47D breast, 28.5 µM in the experiment on SN12C renal, 41.5 µM in the experiment on SF-539 CNS and 10.6 µM in the experiment on U251 CNS.

As for `COc1cc(N(CCC#N)CCC#N)ccc1/C(N=Nc1cccc([N+](=O)[O-])c1)=N\NC(=O)c1ccc(C)cc1`, the TGI was more than 100 µM with OVCAR-4 ovarian; more than 100 µM in the experiment with SK-MEL-2 melanoma; more than 100 µM in the experiment on BT-549 breast; more than 100 µM in the experiment on HCT-116 colon; 60.9 µM in the experiment with UACC-257 melanoma; more than 100 µM with HOP-92 NSCLC. For the same compound, the TGI with T-47D breast, in the experiment on SN12C renal and in the experiment on U251 CNS was more than 100 µM each time.

As for `COc1cc(CCNC2=CC(=O)c3ncccc3C2=O)ccc1O`, the TGI is 12.1 µM in the experiment with OVCAR-4 ovarian; 9.79 µM with SK-MEL-2 melanoma; 2.99 µM in the experiment on BT-549 breast; more than 34.4 µM with HCT-116 colon; 4.28 µM in the experiment with UACC-257 melanoma; 42.7 µM in the experiment with HOP-92 NSCLC. The TGI with T-47D breast was more than 63.6 µM; in the experiment with SN12C renal, 6.71 µM; in the experiment on SF-539 CNS it was 7.83 µM; with U251 CNS, 19.6 µM.

As for `O=c1cc(O)c1=O`, the TGI in the experiment on OVCAR-4 ovarian, in the experiment on SK-MEL-2 melanoma, in the experiment on BT-549 breast, in the experiment with HCT-116 colon, in the experiment with UACC-257 melanoma and with HOP-92 NSCLC was more than 100 µM each time. For the same compound, the TGI with T-47D breast, with SN12C renal, in the experiment with SF-539 CNS and in the experiment on U251 CNS was more than 100 µM in each case.

`COc1ccc(CC(COS(=O)(=O)c2ccc(C)cc2)NS(=O)(=O)c2ccc(C)cc2)cc1` (stereo not drawn): the TGI in the experiment on OVCAR-4 ovarian is 41.9 µM; in the experiment on SK-MEL-2 melanoma, 44.7 µM; with BT-549 breast it was 23.7 µM; with HCT-116 colon, more than 48.4 µM; with UACC-257 melanoma it was 67.1 µM; with HOP-92 NSCLC, 19.9 µM. The TGI with T-47D breast is 21 µM; with SN12C renal it was 36.1 µM; with SF-539 CNS, more than 100 µM; with U251 CNS, 26.2 µM.

As for `CCOC(=O)c1c2ccccc2n2c(=O)n(-c3ccccc3)nnc12`, the TGI with OVCAR-4 ovarian, in the experiment on SK-MEL-2 melanoma, with BT-549 breast, in the experiment with HCT-116 colon, in the experiment with UACC-257 melanoma and in the experiment on HOP-92 NSCLC was more than 100 µM in each case. Moreover, the TGI in the experiment with T-47D breast was 71.5 µM; in the experiment on SN12C renal, more than 100 µM; in the experiment with SF-539 CNS it was more than 100 µM; in the experiment on U251 CNS, more than 100 µM.

As to `O=c1[nH]c2ccccc2c(=O)c2cc3ccccc3cc12`, the TGI is more than 100 µM in the experiment with OVCAR-4 ovarian; more than 100 µM with SK-MEL-2 melanoma; 45.2 µM in the experiment on BT-549 breast; 20.3 µM with HCT-116 colon; more than 100 µM in the experiment with UACC-257 melanoma; 19.8 µM with HOP-92 NSCLC. Besides, the TGI is more than 100 µM with T-47D breast, more than 100 µM in the experiment on SN12C renal, more than 100 µM in the experiment with SF-539 CNS and 21.4 µM in the experiment with U251 CNS.

`CN(C)CCCCN1c2ccccc2Sc2ccc(N=[N+]=[N-])cc21`: the TGI in the experiment with OVCAR-4 ovarian is 19.3 µM; in the experiment with SK-MEL-2 melanoma, 9.66 µM; with BT-549 breast it was 24.5 µM; with HCT-116 colon, 16.3 µM; with UACC-257 melanoma, 3.54 µM; with HOP-92 NSCLC it was 13.4 µM. Besides, the TGI in the experiment on T-47D breast stood at 13.5 µM; in the experiment on SN12C renal, 22.2 µM; in the experiment on SF-539 CNS, 16.8 µM; in the experiment with U251 CNS, 11.9 µM.

As for `COC(=O)c1nc2n(n1)-c1ccccc1C(=O)N(Cc1ccccc1)C2`, the TGI with OVCAR-4 ovarian, with SK-MEL-2 melanoma, in the experiment with BT-549 breast, in the experiment with HCT-116 colon, in the experiment with UACC-257 melanoma and in the experiment with HOP-92 NSCLC was more than 100 µM each time. For the same compound, the TGI in the experiment on T-47D breast, in the experiment with SN12C renal, with SF-539 CNS and with U251 CNS was more than 100 µM throughout.

As for `CCOc1cc(NC(C)=O)ccc1C(=O)NN1C(=O)/C(=C/c2ccc(Cl)cc2)N=C1c1ccccc1`, the TGI in the experiment with OVCAR-4 ovarian, in the experiment on SK-MEL-2 melanoma, in the experiment with BT-549 breast, in the experiment with HCT-116 colon, with UACC-257 melanoma and in the experiment on HOP-92 NSCLC was more than 100 µM in each case. In addition, the TGI in the experiment with T-47D breast is 77.1 µM; in the experiment with SN12C renal, more than 100 µM; in the experiment with SF-539 CNS, more than 100 µM; in the experiment with U251 CNS, more than 100 µM.

Consider `Nc1nc(NCc2ccccc2)cc(NCc2ccccc2)n1`, for which the TGI in the experiment with OVCAR-4 ovarian was 28.3 µM; in the experiment with SK-MEL-2 melanoma it was 31.2 µM; in the experiment on BT-549 breast it was 23.5 µM; in the experiment with HCT-116 colon, 21.2 µM; with UACC-257 melanoma, 21.6 µM; with HOP-92 NSCLC, 21.5 µM. The TGI in the experiment with T-47D breast came to 25.9 µM; with SN12C renal, 32.4 µM; in the experiment with SF-539 CNS, 18.3 µM; in the experiment with U251 CNS it was 71.2 µM.

For the compound `NS(=O)(=O)c1ccc(NNc2c3ccccc3nc3c(C(=O)Nc4ccc(S(N)(=O)=O)cc4)cccc23)cc1`, the TGI in the experiment on OVCAR-4 ovarian is 75.1 µM; with SK-MEL-2 melanoma it was 54.4 µM; with BT-549 breast it was 54.7 µM; in the experiment with HCT-116 colon, more than 100 µM; with UACC-257 melanoma it was more than 100 µM; in the experiment with HOP-92 NSCLC, 73.4 µM. The TGI in the experiment on T-47D breast is more than 100 µM; in the experiment with SN12C renal it was more than 100 µM; in the experiment with SF-539 CNS, more than 100 µM; in the experiment on U251 CNS it was 61 µM.

As to `COc1ccc(N(c2ccc(C#N)cc2)c2ccc(C#N)cc2)cc1`, the TGI with OVCAR-4 ovarian, with SK-MEL-2 melanoma, with BT-549 breast, in the experiment on HCT-116 colon, in the experiment on UACC-257 melanoma and in the experiment with HOP-92 NSCLC was more than 100 µM throughout. The TGI in the experiment on T-47D breast is 77.6 µM; in the experiment on SN12C renal, more than 100 µM; in the experiment with SF-539 CNS, more than 100 µM; with U251 CNS, more than 100 µM.

`Cn1c2ccccc2n2c3ccccc3c3nnc(N)c-3c12`: the TGI is more than 100 µM in the experiment with OVCAR-4 ovarian; more than 79.5 µM in the experiment on SK-MEL-2 melanoma; 13.8 µM in the experiment with BT-549 breast; more than 100 µM in the experiment on HCT-116 colon; more than 100 µM in the experiment on UACC-257 melanoma; more than 100 µM in the experiment on HOP-92 NSCLC. For the same compound, the results for the TGI with T-47D breast, in the experiment with SN12C renal and in the experiment on U251 CNS were 12.9 µM, 10 µM and 11.7 µM, respectively.
